Measurements reported in patent US11155557B2, “Pyrazolopyrimidine compounds and methods of use thereof” (Genentech, Inc., priority 2016, dated 2021).
Like-named read-outs stand apart in the source and are kept apart here.

Tests used:
[1] = target: isolated recombinant JAK1 kinase domain (Homo sapiens (Human), UniProt P23458); assay: JAK1 enzyme assay (Caliper LabChip, Ki); format: biochemical
Protocol: The activity of the isolated recombinant JAK1 and JAK2 kinase domain was measured by monitoring phosphorylation of a peptide derived from JAK3 ([…] fluorescently labeled on the N-terminus with 5-carboxyfluorescein) using the Caliper LabChip R technology (Caliper Life Sciences, Hopkinton, Mass.).

[2] = system: JAK1-dependent STAT6 phosphorylation in BEAS-2B human bronchial epithelial cells; assay: JAK1 pathway assay: IL-13 stimulated STAT6 phosphorylation in BEAS-2B cells; format: cell-based; conditions: BEAS-2B cells, IL-13 stimulation, read-out: IL-13 p-STAT6 BEAS-2B IC50
Protocol: JAK1 Pathway Assay in Cell Lines was Carried Out as Follows:
Inhibitor potency (EC50) was determined in cell-based assays designed to measure JAK1 dependent STAT phosphorylation.
In one assay approach, TF-1 human erythroleukemia cells obtained from the American Type Culture Collection (ATCC; Manassas, Va.) were used to measure JAK1-dependent STAT6 phosphorylation downstream of IL-13 stimulation. Prior to use in the assays, TF-1 cells were starved of GM-CSF overnight in OptiMEM medium (Life Technologies, Grand Island, N.Y.) supplemented with 0.5% charcoal/dextran stripped fetal bovine serum (FBS), 0.1 mM non-essential amino acids (NEAA), and 1 mM sodium pyruvate. The assays were run in 384-well plates in serum-free OptiMEM medium using 300,000 cells per well. In a second assay approach, BEAS-2B human bronchial epithelial cells obtained from ATCC were plated at 100,000 cells per well of a 96-well plate one day prior to the experiment. The BEAS-2B assay was run in complete growth medium (bronchial epithelial basal medium plus bulletkit; Lonza; Basel, Switzerland).
Test compounds were serially diluted 1:2 in DMSO and then diluted 1:50 in medium just before use. Diluted compounds were added to the cells, for a final DMSO concentration of 0.2%, and incubated for 30 min (for the TF-1 assay) or 1 hr (for the BEAS-2B assay) at 37° C. Then, cells were stimulated with human recombinant cytokine at their respective EC90 concentrations, as previously determined for each individual lot. Cells were stimulated with IL-13 (R&D Systems, Minneapolis, Minn.) for 15 min at 37° C. […] The resultant samples were frozen in the plates at −80° C. Compound mediated inhibition of STAT6 phosphorylation was measured in the cell lysates using MesoScale Discovery (MSD) technology (Gaithersburg, Md.).

[3] = target: isolated recombinant JAK2 kinase domain (Homo sapiens (Human), UniProt O60674); assay: JAK2 enzyme assay (Caliper LabChip, Ki)
isolated recombinant JAK2 kinase domain, sequence (O60674 849-1124): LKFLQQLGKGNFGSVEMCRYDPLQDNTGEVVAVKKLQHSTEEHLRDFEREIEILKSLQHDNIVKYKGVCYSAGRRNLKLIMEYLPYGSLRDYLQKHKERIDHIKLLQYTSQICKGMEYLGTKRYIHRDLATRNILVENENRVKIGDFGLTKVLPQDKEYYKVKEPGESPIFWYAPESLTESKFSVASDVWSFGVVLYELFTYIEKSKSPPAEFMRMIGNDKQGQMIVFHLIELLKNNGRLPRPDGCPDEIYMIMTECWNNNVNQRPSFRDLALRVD

isolated recombinant JAK1 kinase domain, sequence (P23458 875-1153): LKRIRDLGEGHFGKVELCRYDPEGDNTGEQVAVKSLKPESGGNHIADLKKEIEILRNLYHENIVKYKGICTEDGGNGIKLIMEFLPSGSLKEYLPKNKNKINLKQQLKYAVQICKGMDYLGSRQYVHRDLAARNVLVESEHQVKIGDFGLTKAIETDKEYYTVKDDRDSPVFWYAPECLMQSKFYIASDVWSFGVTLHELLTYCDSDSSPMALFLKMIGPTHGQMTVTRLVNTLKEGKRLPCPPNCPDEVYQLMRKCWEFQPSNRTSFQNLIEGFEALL

Ki [1] [nM] | Ki ([3]; read-out: JAK2 Ki) [nM] | Ki [3] [nM] | SMILES | IC50 ([2]; Homo sapiens, BEAS-2B) [nM] | IC50 [2] [nM]
0.32 | 0.14 | – | O=C(Nc1c[nH]nc1-c1cc2c(cc1OC(F)F)CCCO2)c1cnn2cccnc12 [Example 17, N-[3-[6-(difluoromethoxy)-3,4-dihydro-2H-1-benzopyran-7-yl]-H-pyrazol-4-yl]pyrazolo[1,5-a]pyrimidine-3-carboxamide] | 14 | –
0.19 | 0.12 | – | COc1cc2cc(C)sc2cc1-c1n[nH]cc1NC(=O)c1cnn2cccnc12 [Example 22, N-(3-(5-methoxy-2-methylbenzo[b]thiophen-6-yl)-1H-pyrazol-4-yl)pyrazolo[1,5-a]pyrimidine-3-carboxamide] | 6 | –
0.19 | 0.08 | – | O=C(Nc1c[nH]nc1-c1cc2c(cc1OC(F)F)CCC2)c1cnn2cccnc12 [Example 26, N-[3-[6-(difluoromethoxy)indan-5-yl]-1H-pyrazol-4-yl]pyrazolo[1,5-a]pyrimidine-3-carboxamide] | 8 | –
0.89 | 0.34 | – | COc1cc2c(cc1-c1n[nH]cc1NC(=O)c1cnn3cccnc13)CCC2 [Example 27, N-[3-(6-methoxyindan-5-yl)-1H-pyrazol-4-yl]pyrazolo[1,5-a]pyrimidine-3-carboxamide] | 6 | –
0.3 | 0.2 | – | COc1cc2[nH]ncc2cc1-c1n[nH]cc1NC(=O)c1cnn2cccnc12 [Example 30, N-[3-(6-methoxy-1H-indazol-5-yl)-1H-pyrazol-4-yl]pyrazolo[1,5-a]pyrimidine-3-carboxamide] | – | 369
2.09 | 0.9 | – | COc1cc2[nH]cnc2cc1-c1n[nH]cc1NC(=O)c1cnn2cccnc12 [Example 31, N-[3-(6-methoxy-1H-benzimidazol-5-yl)-1H-pyrazol-4-yl]pyrazolo[1,5-a]pyrimidine-3-carboxamide] | 6910 | –
0.16 | 0.11 | – | COc1cc2cnsc2cc1-c1n[nH]cc1NC(=O)c1cnn2cccnc12 [Example 32, N-[3-(5-methoxy-1,2-benzothiazol-6-yl)-1H-pyrazol-4-yl]pyrazolo[1,5-a]pyrimidine-3-carboxamide] | 2 | –
0.91 | 0.4 | – | COc1cc2sncc2cc1-c1n[nH]cc1NC(=O)c1cnn2cccnc12 [Example 33, N-[3-(6-methoxy-1,2-benzothiazol-5-yl)-1H-pyrazol-4-yl]pyrazolo[1,5-a]pyrimidine-3-carboxamide] | 21 | –

The remaining lines, values behind:

SMILES | Ki [1] [nM] | Ki ([3]; read-out: JAK2 Ki) [nM] | Ki [3] [nM] | IC50 ([2]; Homo sapiens, BEAS-2B) [nM] | IC50 [2] [nM]
CC(C)(C)OC(=O)N1CCN(C(=O)c2cc3cc(OC(F)F)c(-c4n[nH]cc4NC(=O)c4cnn5cccnc45)cc3s2)CC1 [Example 9, tert-Butyl 4-(5-(difluoromethoxy)-6-(4-(pyrazolo[1,5-a]pyrimidine-3-carboxamido)-1H-pyrazol-3-yl)benzo[b]thiophene-2-carbonyl)piperazine-1-carboxylate] | 3.99 | 2.85 | – | 153 | –
O=C(Nc1c[nH]nc1-c1cc2sc(C(=O)N3CCNCC3)cc2cc1OC(F)F)c1cnn2cccnc12 [Example 10, N-(3-(5-(difluoromethoxy)-2-(piperazine-1-carbonyl)benzo[b]thiophen-6-yl)-1H-pyrazol-4-yl)pyrazolo[1,5-a]pyrimidine-3-carboxamide] | 4.54 | 1.99 | – | > 1000 | –
O=C(Nc1c[nH]nc1-c1cc2c(cc1OC(F)F)NCCO2)c1cnn2cccnc12 [Example 11] | 0.1 | 0.08 | – | 4 | –
O=C(Nc1c[nH]nc1-c1cc2c(cc1OC(F)F)NCCS2)c1cnn2cccnc12 [Example 12, N-(3-(6-(difluoromethoxy)-3,4-dihydro-2H-benzo[b][1,4]thiazin-7-yl)-1H-pyrazol-4-yl)pyrazolo[1,5-a]pyrimidine-3-carboxamide] | 0.09 | 0.06 | – | 6 | –
NCCn1cc(NC(=O)c2cnn3cccnc23)c(-c2cc3c(cc2OC(F)F)NCCS3)n1 [Example 13, N-(1-(2-aminoethyl)-3-(6-(difluoromethoxy)-3,4-dihydro-2H-benzo[b][1,4]thiazin-7-yl)-1H-pyrazol-4-yl)pyrazolo[1,5-a]pyrimidine-3-carboxamide] | 0.18 | 0.13 | – | 20 | –
O=C1CSc2cc(-c3n[nH]cc3NC(=O)c3cnn4cccnc34)c(OC(F)F)cc2N1 [Example 14, N-[3-[6-(difluoromethoxy)-3-oxo-3,4-dihydro-2H-1,4-benzothiazin-7-yl]-1H-pyrazol-4-yl]pyrazolo[1,5-a]pyrimidine-3-carboxamide] | 0.05 | 0.04 | – | 27 | –
O=C(Nc1c[nH]nc1-c1cc2c(cc1OC(F)F)CCO2)c1cnn2cccnc12 [Example 16, N-(3-(5-(difluoromethoxy)-2,3-dihydrobenzofuran-6-yl)-1H-pyrazol-4-yl)pyrazolo[1,5-a]pyrimidine-3-carboxamide] | 0.21 | 0.09 | – | 5 | –
COC(=O)Cn1cc(NC(=O)c2cnn3cccnc23)c(-c2cc3sc(C#N)cc3cc2OC(F)F)n1 [Example 19, Methyl 2-(3-(2-cyano-5-(difluoromethoxy)benzo[b]thiophen-6-yl)-4-(pyrazolo[1,5-a]pyrimidine-3-carboxamido)-1H-pyrazol-1-yl)acetate] | 0.3 | 0.33 | – | 21 | –
Cn1cc(NC(=O)c2cnn3cccnc23)c(-c2cc3sc(C(=O)N4CCN(C(=O)OC(C)(C)C)CC4)cc3cc2OC(F)F)n1 [Example 20, tert-Butyl 4-(5-(difluoromethoxy)-6-(1-methyl-4-(pyrazolo[1,5-a]pyrimidine-3-carboxamido)-1H-pyrazol-3-yl)benzo[b]thiophene-2-carbonyl)piperazine-1-carboxylate] | 5.57 | 4.48 | – | 186 | –
O=C(Nc1c[nH]nc1-c1cc2cn[nH]c2cc1OC(F)F)c1cnn2cccnc12 [Example 21, N-(3-(6-(difluoromethoxy)-1H-indazol-5-yl)-1H-pyrazol-4-yl)pyrazolo[1,5-a]pyrimidine-3-carboxamide] | 0.07 | – | 0.05 | 37 | –
COc1cc2sc(C#N)cc2cc1-c1n[nH]cc1NC(=O)c1cnn2cccnc12 [Example 24, N-(3-(2-cyano-6-methoxybenzo[b]thiophen-5-yl)-H-pyrazol-4-yl)pyrazolo[1,5-a]pyrimidine-3-carboxamide] | 0.41 | 0.27 | – | 14 | –
Cc1cc2cc(OC(F)F)c(-c3n[nH]cc3NC(=O)c3cnn4cccnc34)cc2s1 [Example 25, N-(3-(5-(difluoromethoxy)-2-methylbenzo[b]thiophen-6-yl)-1H-pyrazol-4-yl)pyrazolo[1,5-a]pyrimidine-3-carboxamide] | 0.11 | 0.06 | – | 5 | –
COc1cc2cnccc2cc1-c1n[nH]cc1NC(=O)c1cnn2cccnc12 [Example 29, N-[3-(7-methoxy-6-isoquinolyl)-1H-pyrazol-4-yl]pyrazolo[1,5-a]pyrimidine-3-carboxamide] | 0.84 | 0.49 | – | 85 | –
COc1cc2sccc2cc1-c1[nH]ncc1NC(=O)c1cnn2cccnc12 [Example 34, N-[5-(6-methoxybenzothiophen-5-yl)-1H-pyrazol-4-yl]pyrazolo[1,5-a]pyrimidine-3-carboxamide] | 0.6 | 0.19 | – | 10 | –
